Where two headings read alike, the source gives them in different places.
Molecular target: tyrosinase (enzyme EC 1.14.18,1, issue de champignon)
Experiment: Tyrosinase inhibition test (L-dopa to dopachrome, read at 475 nm)
Format: biochemical
Details: for IC50: read-out: CI50 (the source's name)
Procedure: Mélange A : l'échantillon à tester à différentes concentrations (200 μL), ainsi qu'un "contrôle" (tampon phosphate, pH 6,5), sont incubés pendant 30 minutes à 37°C en présence de tyrosinase (enzyme EC 1.14.18,1, issue de champignon; 200μL, 300 U/mL). Mélange B : 200 μL de L-dopa (2,5 mM) sont additionnés à 400 μL de tampon phosphate (pH 6,5). Après les 30 minutes d'incubation, le mélange A est ajouté au mélange B et la dopachrome produite est mesurée à 475 nm au bout d'une minute […].

[1] = mushroom tyrosinase 300 U/mL, 30 min preincubation at 37°C, phosphate buffer pH 6,5, L-dopa 2,5 mM, dopachrome at 475 nm, mean with spread, n in cell

In the case of `Oc1ccc(C=Cc2cc(O)cc(O)c2)cc1` [Bloc II, resvératrol, reference compound], the IC50 (bounds stated in running text for the tyrosinase inhibition tests under the conditions of the examples) is reported as greater than 60 µM.
In the case of `Oc1ccc(/C=C/c2cc(O)cc3c2[C@@H](c2cc(O)cc(O)c2)[C@H](c2ccc(O)cc2)O3)cc1` [Bloc VIII, ε-viniférine], the “IC50 of the dimer relative to that of the monomer (resvératrol)” value (tyrosinase inhibition test) is reported as less than 10 fois.
For `Oc1ccc(C=Cc2cc(O)cc(O)c2)cc1` [II], the IC50 [1] was 61.4 µM.
`Oc1ccc(C=Cc2cc(O)cc3c2C(c2cc(O)cc(O)c2)C(c2ccc(O)cc2)O3)cc1` (stereo not shown) [VIII] showed an IC50 [1] of 10.4 µM.

Source: patent EP1519709B1, “NOVEL COSMETIC APPLICATIONS OF POLYPHENOLS AND DERIVATIVES THEREOF” (Caudalie, priority 2002, dated 2004)
